According to patent publication US10919935B2, “Antimicrobial peptide derived from myxinidin peptide and uses thereof” (INDUSTRY-ACADEMIC COOPERATION FOUNDATION, CHOSUN UNIVERSITY, priority 2015, dated 2021):
Residues, ends and D or L forms follow the SMILES beside them.

Tests used:
Type in all cases: cell-based
[1] = system: Staphylococcus aureus ATCC 25923
Description: (§1) To compare the antimicrobial activity of the peptide produced by the method of Example 1, the inventors of the present invention measured the growth minimum inhibitory concentration (MIC), which is minimum concentration of the peptide showing no dissociation of bacterial cells.
(§2) Specifically, the bacterial strain described in the following Table 2 was purchased and cultured in each medium to a mid-log phase. Then, after dilution to bacterial cell concentration of 2×10^5 cells/100 μl, the cells were inoculated to a microtiter plate (NUNC, USA). Thereafter, myxinidin 1, myxinidin 2, or myxinidin 3 peptides which have been synthesized in Example 1 above was diluted, 1/2 times for each, with BSA (bovine serum albumin) solution in a 96-well plate. After adding the cells to a plate, the cells were cultured for 12 hours at 37° C. By using a microtiter plate reader (Merck Elisa reader, Germany), the absorbance was measured at a wavelength of 600 nm to determine the MIC value of each bacterial strain. As a control group, myxinidin as a mother peptide was subjected to the same processes as above and the MIC value of each bacterial strain was obtained.

[2] = system: Listeria monocytogenes KCTC 3710
Description: as §1, §2

[3] = system: Salmonella typhimurium CCARM 8009
Description: as §1, §2

[4] = system: Escherichia coli ATCC 25922
Description: as §1, §2

[5] = system: Salmonella typhimurium CCARM 8013
Description: as §1, §2

[6] = system: Salmonella typhimurium KCTC 1926
Description: as §1, §2

[7] = system: Escherichia coli CCARM 1229
Description: as §1, §2

[8] = system: Pseudomonas aeruginosa ATCC 27853
Description: as §1, §2

[9] = system: Staphylococcus aureus CCARM 3709
Description: as §1, §2

[10] = system: Escherichia coli CCARM 1238
Description: as §1, §2

[11] = system: Pseudomonas aeruginosa Isolated strain 5018
Description: as §1, §2

[12] = system: Staphylococcus aureus CCARM 3114
Description: as §1, §2

[13] = system: Pseudomonas aeruginosa Isolated strain 3592
Description: as §1, §2

in vitro = details: human, NHK cells (normal human keratinocytes)
Description: To determine the cytotoxicity of the peptide produced by the method of Example 1 in normal cell line, toxicity was measured by using NHK cells (Normal Human Keratinocyte cells).
Specifically, NHK cells which have been cultured in Epilife medium with 60 μM calcium (Gibco, USA) containing 10% HKGS (Human Keratinocyte Growth Supplement) (Gibco, USA) were aliquoted in a 96-well plate to have 1×10^4 cells per well. After culturing them for 24 hours, the cells were subjected to a treatment with myxinidin, myxinidin 1, myxinidin 2, or myxinidin 3 peptide, each at concentration of 3.125, 6.25, 12.5, or 25.0 μM/well, followed by reaction for 24 hours in a 5% CO2 incubator. After the culture, a reaction solution containing 5 mg/ml MTT (Thiazolyl Blue Tetrazolium Bromide) dissolved in physiological saline (PBS) was added in an amount of 20 μl to each well and allowed to react for 4 hours. After that, the supernatant was removed, and, by dissolving MTT crystals that are formed by adding 200 μl of DMSO, the absorbance at 560 nm was measured to determine the cell survival ability.

SMILES: CC[C@H](C)[C@H](NC(=O)CN)C(=O)N[C@@H](Cc1c[nH]cn1)C(=O)N[C@@H](CC(=O)O)C(=O)N[C@H](C(=O)N[C@@H](CC(C)C)C(=O)N[C@@H](CCCCN)C(=O)N[C@@H](Cc1ccc(O)cc1)C(=O)NCC(=O)N[C@@H](CCCCN)C(=O)N1CCC[C@H]1C(=O)N[C@@H](CO)C(N)=O)[C@@H](C)CC [Myxinidin, GIHDILKYGKPS-NH2] (H-GIHDILKYGKPS-NH2)
- Minimum growth inhibitory concentration [1]: >32 µM
- Minimum growth inhibitory concentration [2]: >32 µM
- Minimum growth inhibitory concentration [3]: >32 µM
- Minimum growth inhibitory concentration [4]: >32 µM
- Minimum growth inhibitory concentration [5]: >32 µM
- Minimum growth inhibitory concentration [6]: >32 µM
- Minimum growth inhibitory concentration [7]: >32 µM
- Minimum growth inhibitory concentration [8]: >32 µM
- Minimum growth inhibitory concentration [9]: >32 µM
- Minimum growth inhibitory concentration [10]: >32 µM
- Minimum growth inhibitory concentration [11]: >32 µM
- Minimum growth inhibitory concentration [12]: >32 µM
- Minimum growth inhibitory concentration [13]: >32 µM
- viability at 24 h, 3.125 µM (in vitro): 100%
- viability at 24 h, 6.25 µM (in vitro): 98%
- viability at 24 h, 12.5 µM (in vitro): 98%
- viability at 24 h, 25 µM (in vitro): 95%
